# Laboratory results: patent publication US5430063A, “Phenoxyphenyl derivatives, compositions thereof and methods for their use” (Akzo N.V., priority 1991, dated 1995)
# Like-named read-outs stand apart in the source and are kept apart here.
# Assay: biological half-life for sleep-wake behaviour in rats
# Details: rat, in vivo
# Procedure: The biological half-lives of the phenoxyphenyl derivatives were determined for the sleep-wake behaviour in rats and compared with the half-lives of the prior art compounds.
# [1] = biological half-life, sleep-wake behaviour in rats, read-out: half-life (converted)
Structure (SMILES),half-life,half-life [1]
"NCc1ccccc1Sc1ccccc1 [2-(phenylthio)benzenemethanamine, reference compound]",0.5 h,
"COc1ccc(Sc2ccccc2CN)cc1 [2-[(4-methoxyphenyl)thio]-benzenemethanamine, reference compound]",< 0.5 h,
"Cl.NCc1ccccc1Oc1ccc(Cl)cc1 [Example 1, 2-(4-chlorophenoxy)benzenemethanamine hydrochloride]",,1 to 2.5 h
"Cl.NCc1ccccc1Oc1ccc(Cl)c(Cl)c1 [Example 2, 2-(3,4-dichlorophenoxy)benzenemethanamine hydrochloride]",,2.5 h
"CN(C)Cc1ccccc1Oc1ccc(Cl)cc1.O=C(O)/C=C\C(=O)O [Example 4, 2-(4-chlorophenoxy)-N,N-dimethylbenzenemethanamine (Z)-2-butenedioate]",1 h,
"Clc1ccc(Oc2ccccc2C2=NCCN2)cc1.O=C(O)/C=C\C(=O)O [Example 5, 2-[2-(4-chlorophenoxy)phenyl]-4,5-dihydro-1H-imidazole (Z)-2-butenedioate]",,3 h
"Clc1ccc(Oc2ccccc2C2=NCCN2)cc1Cl.O=C(O)/C=C\C(=O)O [Example 6a, 2-[2-(3,4-dichlorophenoxy)phenyl]-4,5-dihydro-1H-imidazole (Z)-2-butenedioate]",1.5 to 2.5 h,
